Where “and” joins values, the source holds several entries; their conditions need not be identical. Identical values can stand only once. Like-named read-outs stand apart in the source and are kept apart here.
Columns and labels:
Assay type in all cases: cell-based
α4β3γ2 GABAA receptors = biological target: T1, α4β3γ2 GABAA receptors (Rattus norvegicus, UniProt P28471+P63079); experiment: Two electrode voltage clamp in Xenopus laevis oocytes, α4β3γ2
T1 construct: expressed in transfected cells; host or cells: Xenopus laevis oocytes, mRNA injected
T1 sequence (P28471 36-552): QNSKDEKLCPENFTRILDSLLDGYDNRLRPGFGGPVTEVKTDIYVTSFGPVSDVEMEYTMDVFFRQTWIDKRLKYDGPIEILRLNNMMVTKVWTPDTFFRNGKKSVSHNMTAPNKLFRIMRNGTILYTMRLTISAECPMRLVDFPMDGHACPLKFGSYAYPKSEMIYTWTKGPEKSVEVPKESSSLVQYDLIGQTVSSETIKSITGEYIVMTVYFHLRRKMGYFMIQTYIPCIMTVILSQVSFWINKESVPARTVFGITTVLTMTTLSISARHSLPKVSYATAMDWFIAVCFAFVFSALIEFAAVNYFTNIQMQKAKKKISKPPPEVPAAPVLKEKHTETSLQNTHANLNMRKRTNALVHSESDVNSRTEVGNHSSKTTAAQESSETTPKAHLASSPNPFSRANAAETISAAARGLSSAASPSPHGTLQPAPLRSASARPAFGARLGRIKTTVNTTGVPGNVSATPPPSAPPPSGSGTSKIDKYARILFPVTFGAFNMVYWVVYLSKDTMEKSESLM
T1 sequence (P63079 26-473): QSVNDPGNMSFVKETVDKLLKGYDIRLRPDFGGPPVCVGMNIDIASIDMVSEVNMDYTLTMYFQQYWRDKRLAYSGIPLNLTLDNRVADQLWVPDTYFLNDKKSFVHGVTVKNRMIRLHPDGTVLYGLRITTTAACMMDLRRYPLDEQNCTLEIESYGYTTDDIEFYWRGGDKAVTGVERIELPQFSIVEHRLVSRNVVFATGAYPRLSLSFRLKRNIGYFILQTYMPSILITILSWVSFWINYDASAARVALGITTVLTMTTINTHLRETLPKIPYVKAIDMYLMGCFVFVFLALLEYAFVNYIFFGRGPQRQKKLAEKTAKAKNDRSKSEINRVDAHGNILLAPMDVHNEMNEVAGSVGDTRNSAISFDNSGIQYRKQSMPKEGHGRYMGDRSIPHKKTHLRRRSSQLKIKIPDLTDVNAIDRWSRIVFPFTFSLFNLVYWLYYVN
T1 sequence (P18508 39-466 partner): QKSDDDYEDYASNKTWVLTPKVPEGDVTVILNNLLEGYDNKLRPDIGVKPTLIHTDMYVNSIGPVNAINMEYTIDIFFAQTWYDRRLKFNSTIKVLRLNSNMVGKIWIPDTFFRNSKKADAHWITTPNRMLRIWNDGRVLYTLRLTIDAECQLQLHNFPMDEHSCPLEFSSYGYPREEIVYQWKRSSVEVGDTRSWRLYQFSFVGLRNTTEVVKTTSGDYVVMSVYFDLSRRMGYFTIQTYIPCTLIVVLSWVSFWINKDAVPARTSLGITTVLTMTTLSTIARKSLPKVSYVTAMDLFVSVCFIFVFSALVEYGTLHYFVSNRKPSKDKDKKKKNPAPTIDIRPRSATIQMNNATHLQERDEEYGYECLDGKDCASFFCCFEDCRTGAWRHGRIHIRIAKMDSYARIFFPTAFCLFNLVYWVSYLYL
From the text: (§1) cDNA’s of rat GABAA receptor subunits α1, α4, β1, β2, β3 and γ2S were cloned as described. cDNAs of the rat subunits α2, α3 and α5 were gifts from P. Malherbe, that of α6 and γ1 were gifts of P. Seeburg and that of δ was a gift of C. Czajkowski. The mutants were constructed using the Q5 Site-Directed Mutagenesis Kit (New England Biolabs) following manufacturer’s instruction. We used the wild-type rat β3-pCI vector as template and the primers […] and […] resulting in a substitution of amino acid N41 (AAC) to R (AGG). We used the wild-type rat β1-pCI vector as template and the primers […] and […] resulting in a substitution of amino acid R41 (CGG) to N (AAC). The mutated subunits were confirmed by sequencing.
(§2) In vitro transcription of mRNA was based on the cDNA expression vectors encoding for rat GABAA receptor subunits α1–6, β1-3, γ1,2, δ and the two β mutants (β1R41N and β3N41R)[40]. After linearizing the cDNA vectors with appropriate restriction endonucleases, the cDNA was purified and concentrated with the DNA Clean and Contentrator ^TM Kit (Zymoresearch, Catalog No. D4005). Capped transcripts of the purified cDNA were produced using the mMESSAGE mMACHINE® T7 transcription kit (Ambion, TX, USA) and polyadenylated using the Ambion PolyA tailing kit (Ambion). After transcription and polyadenylation the RNA was purified with the MEGAclear ^TM Kit (Ambion, Catalog No. AM1908). The final RNA concentration was measured on NanoDrop® ND-1000 and finally diluted and stored in diethylpyrocarbonate-treated water at −80 °C. For the microinjection, the RNA of αβ receptor combinations was mixed at 1:1 ratio (which leads to αβ receptors that consist of predominantly 3 beta and 2 alpha subunits[27]), for αkβlγm (k = 1–3, l = 1, 3, m = 1, 2) receptors at 1:1:5 ratio, for αkβ3γ2 (k = 4–6) and αkβlδ (k = 1, 4 and 6, l = 1, 3) receptor combinations at 3:1:5 ratio.
(§3) Mature female Xenopus laevis (Nasco, WI) were anesthetized in a bath of ice-cold 0.17% Tricain (Ethyl-m-aminobenzoate, Sigma, MO) before decapitation in full accordance with all rules of the Austrian animal protection law (see http://www.ris.bka.gv.at/Dokumente/BgblAuth/BGBLA_2012_I_114/BGBLA_2012_I_114.pdf) and the Austrian animal experiment by-laws (see https://www.ris.bka.gv.at/Dokumente/BgblAuth/BGBLA_2012_II_522/BGBLA_2012_II_522.pdf) which implement the European Directive 2010/63/EU (see http://eur-lex.europa.eu/LexUriServ/LexUriServ.do?uri=OJ:L:2010:276:0033:0079:en:PDF) into the Austrian law (all information accessed on July 27, 2016). The frog’s ovaries were transferred to ND96 medium (96 mM NaCl, 2 mM KCl, 1 mM MgCl2, 5 mM HEPES; pH 7.5). Stage 5–6 oocytes with the follicle cell layer around them were roughly dissected with forceps into packages of 10–15 cells and washed in Ca^2+-free ND96 medium. Cells were then digested with collagenase (type IA, Sigma, NO, 1 mg/mL ND96) at 18 °C shaking at 30 rpm for 30–60 minutes and gently defolliculated with the aid of a glass pipette with appropriate tip diameter and a platinum loop. Defolliculated cells were stored at 18 °C for at least 6 hours in ND96 solution containing penicillin G (10000 IU/100 mL) and streptomycin (10 mg/100 mL) in order to preselect and exclude damaged cells from further treatment. Healthy defolliculated oocytes were injected with an aqueous solution of mRNA. A total of 4.5 ng of mRNA per oocyte was injected with a Nanoject II (Drummond). After injection of mRNA, oocytes were incubated at 18 °C (ND96 + antibiotic) for 2–3 days for αβ receptors and for 3–4 days for αβγ or αβδ receptors before recording. When cells were measured at later time points, oocytes were stored at +4 °C instead of 18 °C.
(§4) For electrophysiological recordings, oocytes were placed on a nylon-grid in a bath of Ca^2+-containing NDE solution medium [96 mM NaCl, 5 mM HEPES-NaOH (pH 7.5), 2 mM KCl, 1 mM MgCl2, 1.8 mM CaCl2].

α1β3γ2 GABAA receptors = biological target: T2, α1β3γ2 GABAA receptors (Rattus norvegicus, UniProt P62813+P63079); experiment: Two electrode voltage clamp in Xenopus laevis oocytes, α1β3γ2
T2 construct: expressed in transfected cells; host or cells: Xenopus laevis oocytes, mRNA injected
T2 sequence (P62813 28-455): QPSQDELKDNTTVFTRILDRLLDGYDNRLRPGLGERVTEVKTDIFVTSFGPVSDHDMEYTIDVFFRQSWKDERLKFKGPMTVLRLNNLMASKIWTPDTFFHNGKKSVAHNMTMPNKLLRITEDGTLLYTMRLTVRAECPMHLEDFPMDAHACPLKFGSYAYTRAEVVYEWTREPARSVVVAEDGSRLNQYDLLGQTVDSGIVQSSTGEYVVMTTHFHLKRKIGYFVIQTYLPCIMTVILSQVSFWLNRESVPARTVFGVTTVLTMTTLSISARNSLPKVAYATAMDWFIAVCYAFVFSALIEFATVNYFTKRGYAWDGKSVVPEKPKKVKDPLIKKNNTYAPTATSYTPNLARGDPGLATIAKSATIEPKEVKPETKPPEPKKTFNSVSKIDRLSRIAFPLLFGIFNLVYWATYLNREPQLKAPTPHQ
T2 sequence (P63079 26-473): as the sequence (P63079 26-473) above
T2 sequence (P18508 39-466 partner): as the sequence (P18508 39-466 partner) above
From the text: as §1, §2, §3, §4

α2β3γ2 GABAA receptors = biological target: T3, α2β3γ2 GABAA receptors (Rattus norvegicus, UniProt P23576+P63079); experiment: Two electrode voltage clamp in Xenopus laevis oocytes, α2β3γ2
T3 construct: expressed in transfected cells; host or cells: Xenopus laevis oocytes, mRNA injected
T3 sequence (P23576 29-451): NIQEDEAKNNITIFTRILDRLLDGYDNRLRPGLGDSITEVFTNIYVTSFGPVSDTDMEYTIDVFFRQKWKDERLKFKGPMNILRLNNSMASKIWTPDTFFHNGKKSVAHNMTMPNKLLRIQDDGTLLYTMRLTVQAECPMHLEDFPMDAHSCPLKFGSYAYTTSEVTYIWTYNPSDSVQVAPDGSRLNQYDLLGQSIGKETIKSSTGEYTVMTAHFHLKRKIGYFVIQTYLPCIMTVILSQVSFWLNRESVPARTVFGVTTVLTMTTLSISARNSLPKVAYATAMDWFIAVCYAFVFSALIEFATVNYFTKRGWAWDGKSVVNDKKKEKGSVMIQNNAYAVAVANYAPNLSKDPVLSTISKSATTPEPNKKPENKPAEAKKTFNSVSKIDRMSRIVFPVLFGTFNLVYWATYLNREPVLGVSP
T3 sequence (P63079 26-473): as the sequence (P63079 26-473) above
T3 sequence (P18508 39-466 partner): as the sequence (P18508 39-466 partner) above
From the text: as §1, §2, §3, §4

α5β3γ2 GABAA receptors = biological target: T4, α5β3γ2 GABAA receptors (Rattus norvegicus, UniProt P19969+P63079); experiment: Two electrode voltage clamp in Xenopus laevis oocytes, α5β3γ2
T4 construct: expressed in transfected cells; host or cells: Xenopus laevis oocytes, mRNA injected
T4 sequence (P19969 32-464 limits assumed): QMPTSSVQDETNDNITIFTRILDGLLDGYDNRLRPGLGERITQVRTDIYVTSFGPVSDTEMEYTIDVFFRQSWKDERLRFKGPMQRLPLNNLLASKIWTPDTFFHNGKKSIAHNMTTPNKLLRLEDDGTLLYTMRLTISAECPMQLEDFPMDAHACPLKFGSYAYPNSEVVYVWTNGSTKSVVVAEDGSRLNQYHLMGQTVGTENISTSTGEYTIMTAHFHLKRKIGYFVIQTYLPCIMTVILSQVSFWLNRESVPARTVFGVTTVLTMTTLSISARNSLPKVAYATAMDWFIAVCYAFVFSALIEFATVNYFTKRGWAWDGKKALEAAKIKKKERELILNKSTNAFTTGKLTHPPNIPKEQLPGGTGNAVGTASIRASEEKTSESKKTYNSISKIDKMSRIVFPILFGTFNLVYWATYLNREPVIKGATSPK
T4 sequence (P63079 26-473): as the sequence (P63079 26-473) above
T4 sequence (P18508 39-466 partner): as the sequence (P18508 39-466 partner) above
From the text: as §1, §2, §3, §4

α2β3 GABAA receptors = biological target: T5, α2β3 GABAA receptors (Rattus norvegicus, UniProt P23576+P63079); experiment: Two electrode voltage clamp in Xenopus laevis oocytes, α2β3
T5 construct: expressed in transfected cells; host or cells: Xenopus laevis oocytes, mRNA injected
T5 sequence (P23576 29-451): as the sequence (P23576 29-451) above
T5 sequence (P63079 26-473): as the sequence (P63079 26-473) above
From the text: as §1, §2, §3, §4

α3β3 GABAA receptors = biological target: T6, α3β3 GABAA receptors (Rattus norvegicus, UniProt P20236+P63079); experiment: Two electrode voltage clamp in Xenopus laevis oocytes, α3β3
T6 construct: expressed in transfected cells; host or cells: Xenopus laevis oocytes, mRNA injected
T6 sequence (P20236 29-493): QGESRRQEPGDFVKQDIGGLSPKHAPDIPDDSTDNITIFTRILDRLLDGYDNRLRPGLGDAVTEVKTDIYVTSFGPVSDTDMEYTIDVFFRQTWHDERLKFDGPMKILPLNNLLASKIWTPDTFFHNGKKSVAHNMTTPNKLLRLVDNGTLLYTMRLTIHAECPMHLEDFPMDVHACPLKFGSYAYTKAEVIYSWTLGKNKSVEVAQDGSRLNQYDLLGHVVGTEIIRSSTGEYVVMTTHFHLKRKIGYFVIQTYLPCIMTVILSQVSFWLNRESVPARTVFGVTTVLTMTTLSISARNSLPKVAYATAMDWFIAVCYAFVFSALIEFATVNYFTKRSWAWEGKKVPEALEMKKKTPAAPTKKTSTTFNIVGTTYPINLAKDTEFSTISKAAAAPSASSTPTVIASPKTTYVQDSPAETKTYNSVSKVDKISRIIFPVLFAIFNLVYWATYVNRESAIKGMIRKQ
T6 sequence (P63079 26-473): as the sequence (P63079 26-473) above
From the text: as §1, §2, §3, §4

α6β3γ2 GABAA receptors = biological target: T7, α6β3γ2 GABAA receptors (Rattus norvegicus, UniProt P30191+P63079); experiment: Two electrode voltage clamp in Xenopus laevis oocytes, α6β3γ2
T7 construct: expressed in transfected cells; host or cells: Xenopus laevis oocytes, mRNA injected
T7 sequence (P30191 20-453): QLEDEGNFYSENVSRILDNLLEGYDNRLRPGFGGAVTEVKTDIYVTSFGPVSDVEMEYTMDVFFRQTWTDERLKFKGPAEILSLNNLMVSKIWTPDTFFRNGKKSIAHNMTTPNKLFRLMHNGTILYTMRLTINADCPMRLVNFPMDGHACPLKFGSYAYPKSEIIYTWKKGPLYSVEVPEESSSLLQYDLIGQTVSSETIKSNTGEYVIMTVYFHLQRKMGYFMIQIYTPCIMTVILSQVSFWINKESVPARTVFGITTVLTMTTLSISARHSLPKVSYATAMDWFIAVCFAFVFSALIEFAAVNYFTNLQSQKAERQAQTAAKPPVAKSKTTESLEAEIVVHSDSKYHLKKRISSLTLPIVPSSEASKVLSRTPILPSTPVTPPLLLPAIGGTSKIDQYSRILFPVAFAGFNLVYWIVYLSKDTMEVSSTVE
T7 sequence (P63079 26-473): as the sequence (P63079 26-473) above
T7 sequence (P18508 39-466 partner): as the sequence (P18508 39-466 partner) above
From the text: as §1, §2, §3, §4

[1] = read-out: efficacy, % of control current (GABA EC3-5 = 100%), 1 nM
[2] = read-out: efficacy, % of control current (GABA EC3-5 = 100%), 10 nM
[3] = read-out: efficacy, % of control current (GABA EC3-5 = 100%), 1 µM
[4] = read-out: efficacy, % of control current (GABA EC3-5 = 100%), 10 µM

EC50 (α4β3γ2 GABAA receptors): > 10000 nM
activity at 0.001 µM (α4β3γ2 GABAA receptors; read-out: efficacy, % of control current (GABA EC3-5 = 100%), α4β3γ2, 1 nM): 99.7 ± 2%
activity at 0.003 µM (α4β3γ2 GABAA receptors; read-out: efficacy, % of control current (GABA EC3-5 = 100%), α4β3γ2, 3 nM): 111%
activity at 0.01 µM (α4β3γ2 GABAA receptors; read-out: efficacy, % of control current (GABA EC3-5 = 100%), α4β3γ2, 10 nM): 107 ± 3.4%
activity at 0.03 µM (α4β3γ2 GABAA receptors; read-out: efficacy, % of control current (GABA EC3-5 = 100%), α4β3γ2, 30 nM): 114%
activity at 0.1 µM (α4β3γ2 GABAA receptors; read-out: efficacy, % of control current (GABA EC3-5 = 100%), α4β3γ2, 100 nM): 122 ± 4.6%
activity at 1 µM (α4β3γ2 GABAA receptors; read-out: efficacy, % of control current (GABA EC3-5 = 100%), α4β3γ2, 1 µM): 137 ± 6.7%
activity at 10 µM (α4β3γ2 GABAA receptors; read-out: efficacy, % of control current (GABA EC3-5 = 100%), α4β3γ2, 10 µM): 104 ± 12.6%
EC50 (α1β3γ2 GABAA receptors; co-applied with GABA EC3-5, read-out: EC50): ~1000 nM
activity at 0.001 µM (α1β3γ2 GABAA receptors; [1]): 100.8 ± 0.6%
activity at 0.01 µM (α1β3γ2 GABAA receptors; [2]): 103 ± 1.4%
activity at 0.3 µM (α1β3γ2 GABAA receptors; read-out: efficacy, % of control current (GABA EC3-5 = 100%), 300 nM): 120 ± 4.3%
activity at 1 µM (α1β3γ2 GABAA receptors; [3]): 145 ± 3.7%
activity at 3 µM (α1β3γ2 GABAA receptors; read-out: efficacy, % of control current (GABA EC3-5 = 100%), 3 µM): 197 ± 13.7%
activity at 10 µM (α1β3γ2 GABAA receptors; [4]): 232 ± 7.5%
activity at 30 µM (α1β3γ2 GABAA receptors; read-out: efficacy, % of control current (GABA EC3-5 = 100%), 30 µM): 137 ± 17.8%
Emax (α1β3γ2 GABAA receptors; read-out: maximum efficacy / modulatory effects up to): ~200%
EC50 (α1β3γ2 GABAA receptors; read-out: pEC50 (converted)): 1260 nM
EC50 (α2β3γ2 GABAA receptors): > 10000 nM
activity at 0.01 µM (α2β3γ2 GABAA receptors; read-out: efficacy, % of control current (GABA EC3-5 = 100%), α2β3γ2, 10 nM): 103 ± 3.2%
activity at 0.1 µM (α2β3γ2 GABAA receptors; read-out: efficacy, % of control current (GABA EC3-5 = 100%), α2β3γ2, 100 nM): 103 ± 3.2%
activity at 1 µM (α2β3γ2 GABAA receptors; read-out: efficacy, % of control current (GABA EC3-5 = 100%), α2β3γ2, 1 µM): 106 ± 2.2%
activity at 10 µM (α2β3γ2 GABAA receptors; read-out: efficacy, % of control current (GABA EC3-5 = 100%), α2β3γ2, 10 µM): 124 ± 4.1%
EC50 (α5β3γ2 GABAA receptors): > 10000 nM
activity at 0.01 µM (α5β3γ2 GABAA receptors; read-out: efficacy, % of control current (GABA EC3-5 = 100%), α5β3γ2, 10 nM): 89.6 ± 3.1%
activity at 0.1 µM (α5β3γ2 GABAA receptors; read-out: efficacy, % of control current (GABA EC3-5 = 100%), α5β3γ2, 100 nM): 83.6 ± 4.2%
activity at 1 µM (α5β3γ2 GABAA receptors; read-out: efficacy, % of control current (GABA EC3-5 = 100%), α5β3γ2, 1 µM): 90.6 ± 5.1%
activity at 10 µM (α5β3γ2 GABAA receptors; read-out: efficacy, % of control current (GABA EC3-5 = 100%), α5β3γ2, 10 µM): 52.8 ± 6.7%
EC50 (α2β3 GABAA receptors; read-out: EC50): 5100 nM
activity at 0.001 µM (α2β3 GABAA receptors; read-out: efficacy, % of control current (GABA EC3-5 = 100%), α2β3, 1 nM): 100 ± 0.1%
activity at 0.1 µM (α2β3 GABAA receptors; read-out: efficacy, % of control current (GABA EC3-5 = 100%), α2β3, 100 nM): 102 ± 1.2%
activity at 10 µM (α2β3 GABAA receptors; read-out: efficacy, % of control current (GABA EC3-5 = 100%), α2β3, 10 µM): 156 ± 9.7%
EC50 (α3β3 GABAA receptors): 1900 nM
activity at 0.001 µM (α3β3 GABAA receptors; read-out: efficacy, % of control current (GABA EC3-5 = 100%), α3β3, 1 nM): 103 ± 3.1%
activity at 1 µM (α3β3 GABAA receptors; read-out: efficacy, % of control current (GABA EC3-5 = 100%), α3β3, 1 µM): 144 ± 6.3%
EC50 (α6β3γ2 GABAA receptors; co-applied with GABA EC3-5): ~2000 nM and 2300 nM
activity at 0.001 µM (α6β3γ2 GABAA receptors; [1]): 108 ± 5.9%
activity at 0.01 µM (α6β3γ2 GABAA receptors; [2]): 120 ± 7.1%
activity at 0.1 µM (α6β3γ2 GABAA receptors; read-out: efficacy, % of control current (GABA EC3-5 = 100%), 100 nM): 148 ± 8%
activity at 1 µM (α6β3γ2 GABAA receptors; [3]): 250 ± 18.9%
activity at 10 µM (α6β3γ2 GABAA receptors; [4]): 394 ± 35%
Compound: Nc1ccc(-n2nc3c4cc(Cl)ccc4[nH]cc-3c2=O)cc1 [Compound 3, 8-Chloro-2-(4-aminophenyl)-2H-pyrazolo[4,3-c]quinolin-3(5H)-one]

Source: PMC5516028, “Molecular tools for GABAA receptors: High affinity ligands for β1-containing subtypes” (Scientific Reports, 2017)
